SMILES strings stand for the structures. Like-named read-outs stand apart in the source and are kept apart here. Bounds are passed on as bounds.

This assay relates to BT474. As to the kind of experiment: Cell viability (CellTiter-Blue, 72 h), phytocannabinoids alone and in combination, BT474 breast cancer cells. The format is cell-based. As to conditions: for IC50: Homo sapiens; for effect (but only 50% effect): extent of effect reached. On the procedure: The cell lines tested in this Example were as follows. Breast cancer: MDA-MB-231; SK-BR3; and BT474. Liver cancer: HepG2.
The phytocannabinoids were tested alone and in various ratioed combinations in media containing final concentrations of 10% and 1% foetal bovine serum at 72 h for the breast and prostate cancer lines and 1% foetal bovine serum for the liver cancer line HepG2.
Each tumour cell line was maintained in vitro in RPMI 1640+10% heat inactivated FBS and 2 mM L-glutamine (growth media) at 37° C. in 5% CO2 and humidified conditions. The cells were harvested, washed, re-suspended into growth medium and counted. The cells were re-suspended into assay media (RPMI 1640+5% heat inactivated FBS+ and 2 mM L-glutamine) at 8×104-2×10^5 cells/ml (dependent upon cell type) and plated into the middle 240 wells of 384 well tissue culture plates (Corning CellBind, black-wall plates) 12.5 μl/well aliquots; 62.5 μl of growth media was aliquoted into the outer wells. There were 4 plates for each cell line. The plates were incubated overnight at 37° C., in 5% humidified CO2.
The phytocannabinoid test compounds were prepared in 100% DMSO vehicle at a stock concentration of 10 mM.
Starting with the 10 mM stock, the compounds were diluted to 125 μM in FBS-free growth media.
These were diluted in FBS-free growth media to 125 μM before serial dilution.
5 volumes of CBD 10 mM stock was added to 1 volume of the other agent (also at 10 mM) and 4 volumes of DMSO. This made a final concentration of 5 mM:1 mM. This was then diluted in FBS-free growth media so the top concentration of CBD would be 125 μM (before serial dilution). Each compound and compound combination stock was serially diluted in FBS-free growth media (containing 1.25% v/v DMSO) from 125 μM to 41.7, 13.89, 4.63, 1.54, 0.514, 0.171, 0.057 and 0.019 μM (1.25× final assay concentrations). Vehicle was prepared at equivalent dilutions in assay media. The top final concentration of compound in the assay was always 100 μM so CBD5:1CBG was 100 μM CBD and 20 μM CBG.
Taxotere SOC was prepared at a stock concentration of 1 mM in 100% DMSO. Taxotere was serially diluted from the stock solution into FBS-free growth media to 12.5 μM, then serially diluted in FBS-free growth media containing 1.25% DMSO to 4.17, 1.39, 0.46, 0.154, 0.051, 0.017, 0.006, 0.002 μM (1.25× final assay concentrations).
This was then serially diluted in FBS-free growth media to 0.417, 0.139, 0.046, 0.0154, 0.0051, 0.0017, 0.0006, 0.0002 μM (1.25× final assay concentrations). This was plated as a positive control for the SKBR3 & BT474 cell lines. 50 μl per well of compound/vehicle dilutions was added to the plates in replicates of 6. Where applicable total volume in the well was made up to 62.5 μl with assay media.
The plates were incubated for 72 h at 37° C. in 5% humidified CO2. To develop the plates, at 72 h, 10 μl of CellTiter-Blue™ reagent was added to each test/blank well. The plates were incubated at 37° C., 5% humidified CO2. Fluorescence was measured using a Flex II Station plate reader (570 nm excitation wavelength, 600 nm emission wavelength, 590 nm cut-off) after 3 h.
The experimental conditions were the same as the experiment above, with the same compound dilutions and volumes for plating but using growth media containing 10% FBS rather than FBS-free media.
The raw data values expressed in relative fluorescent units were normalised to the vehicle for each individual plate and any reduction in fluorescence indicated a decrease in viability.
The data were analysed in GraphPad PRISM using a non-linear sigmoidal plot with variable slope (asymmetric five point linear regression) and where possible an IC50 value for each single compound and combination was generated.
For the calculation, raw data values expressed in relative fluorescent units were normalised to the vehicle for each individual plate (set as 0%) and the reduction in fluorescence calculated as an increase in inhibition of viability.

Setting [1] is: BT-474, 72 h, BT474, 1% FBS, 72 h, read-out: IC50 values.
Setting [2] is: BT-474, 72 h, BT474, 10% FBS, 72 h, read-out: IC50 values.
Where [3] appears, read: BT-474, BT474, 1% FBS, Calcusyn median-effect analysis, read-out: Dm (median effect dose).

With `C=C(C)[C@@H]1CCC(C)=C[C@H]1c1c(O)cc(CCCCC)cc1O` [CBD, Cannabidiol], the IC50 is, setting by setting: under setting [1], 8 µM; under setting [2], 28 µM; under setting [3], 16.9 µM.

As for `C=C(C)[C@@H]1CCC(C)=C[C@H]1c1c(O)cc(CCCCC)c(C(=O)O)c1O` [CBDA, Cannabidiolic acid], the IC50 by setting is: under setting [1], 21.8 µM; under setting [2], above 100 µM; under setting [3], 43.3 µM.

As for `CCCCCc1cc(O)c(C/C=C(\C)CCC=C(C)C)c(O)c1` [CBG, Cannabigerol], the IC50 under setting [1] worked out at 7.9 µM, the IC50 under setting [2] worked out at 37 µM and the IC50 under setting [3] was 14.8 µM.

Take `CCCCCc1cc(O)c(C/C=C(\C)CCC=C(C)C)c(O)c1C(=O)O` [CBGA, Cannabigerolic acid]: the IC50 by setting is: under setting [1], 24.8 µM; under setting [2], around 100 µM; under setting [3], 27.9 µM.

Regarding `CCCc1cc(O)c2c(c1)OC(C)(C)[C@@H]1CCC(C)=C[C@@H]21` [THCV, Tetrahydrocannabivarin], the IC50 by setting is: under setting [1], 13.3 µM; under setting [2], 31 µM; under setting [3], 20.3 µM.

`CC(=O)O[C@@]12CO[C@@H]1C[C@H](O)[C@@]1(C)C(=O)[C@H](O)C3=C(C)[C@@H](OC(=O)[C@H](O)[C@@H](NC(=O)OC(C)(C)C)c4ccccc4)C[C@@](O)([C@@H](OC(=O)c4ccccc4)[C@H]21)C3(C)C` [Taxotere, Docetaxel, reference compound]: the “effect (but only 50% effect)” value runs as follows: (BT474, 1% FBS) “only 50%”; (BT474, 10% FBS) 50% effect). The IC50 reads like this: under setting [1], below 0.001 µM; under setting [2], below 0.001 µM.

The values above are taken from patent publication US9962341B2, “Active pharmaceutical ingredient (API) comprising cannabinoids for use in the treatment of cancer” (GW Pharma Limited, priority 2014, dated 2018).
